Among the data in PubChem BioAssay (NCI) are GI50 and TGI values, retold here.

Among the test systems are ACHN renal; HCT-116 colon; HL-60(TB) leukemia; K-562 leukemia; LOX IMVI melanoma; OVCAR-3 ovarian; SK-MEL-2 melanoma; SK-MEL-5 melanoma; SK-OV-3 ovarian; U251 CNS.
Common to all, as to assay: DTP human tumour cell line panel, 48 h

Several values for one entry are separate records, joined by “and”; a condition that tells them apart may be missing. Equal entries are not always repeated.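 Following 48 hours of exposure in 96-well plates, responses at five concentrations were used to interpolate endpoints linearly. GI50 marks 50% less growth. The concentration for full growth arrest is given as TGI.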

Consider `COc1ccc(-c2cc(-c3ccc(Nc4nc(Nc5ccc(Cl)cc5)nc(Nc5ccc(Cl)cc5)n4)cc3)no2)cc1`, for which the GI50 in the experiment on ACHN renal is 27.6 µM; with HCT-116 colon, 4.33 µM; with HL-60(TB) leukemia, 1.87 µM; in the experiment on K-562 leukemia, 2.96 µM; in the experiment on LOX IMVI melanoma, 12.2 µM; with OVCAR-3 ovarian it was 11.2 µM. The GI50 in the experiment on SK-MEL-2 melanoma was 17.1 µM; in the experiment on SK-MEL-5 melanoma, 5.08 µM; with SK-OV-3 ovarian, 25.8 µM; in the experiment with U251 CNS, 11.2 µM. Moreover, the TGI with ACHN renal is more than 100 µM; in the experiment with HCT-116 colon, 17.1 µM; with HL-60(TB) leukemia, 12.1 µM; in the experiment on K-562 leukemia, 18.5 µM; in the experiment on LOX IMVI melanoma it was 34.9 µM; in the experiment on OVCAR-3 ovarian, 38.9 µM. In addition, the TGI with SK-MEL-2 melanoma is 57.5 µM; in the experiment with SK-MEL-5 melanoma, 20.3 µM; with SK-OV-3 ovarian, 79.4 µM; with U251 CNS it was more than 100 µM.

Turning to `C[C@]12CCC[C@H](OC=O)C1(O)C[C@H](C(=O)O)CC2` (stereo partly specified), the TGI in the experiment on ACHN renal, with HCT-116 colon, with HL-60(TB) leukemia, with K-562 leukemia, with LOX IMVI melanoma and in the experiment on OVCAR-3 ovarian was more than 100 µM in each case. In addition, the TGI in the experiment with SK-MEL-2 melanoma, with SK-MEL-5 melanoma, in the experiment on SK-OV-3 ovarian and in the experiment on U251 CNS was more than 100 µM throughout.

Take `CN(C)CC/C=C1\c2ccccc2Sc2ccc(Cl)cc21`: the GI50 with ACHN renal is 3.61 µM; in the experiment with HCT-116 colon, 2.4 µM; in the experiment with HL-60(TB) leukemia it was 4.46 µM; in the experiment with K-562 leukemia, 2.43 µM; in the experiment with LOX IMVI melanoma, 1.57 µM; in the experiment with OVCAR-3 ovarian, 3.99 µM. Besides, the GI50 in the experiment on SK-MEL-2 melanoma is 1.95 µM; in the experiment on SK-MEL-5 melanoma, 1.62 µM; in the experiment with SK-OV-3 ovarian, 1.99 µM; in the experiment on U251 CNS, 1.92 µM. Also, the TGI with ACHN renal was 14.4 µM and 29.6 µM; in the experiment on HCT-116 colon, 6.13 µM and 24.4 µM; in the experiment with HL-60(TB) leukemia it was 13.7 µM and 27.7 µM; in the experiment with K-562 leukemia, 4.71 µM and 18.7 µM; in the experiment with OVCAR-3 ovarian, 13.5 µM and 26.8 µM; in the experiment on SK-MEL-2 melanoma, 3.71 µM and 31.7 µM. The TGI was 3 µM and 28.6 µM in the experiment on SK-MEL-5 melanoma; 5 µM and 30.7 µM with SK-OV-3 ovarian; 4.66 µM and 26.9 µM with U251 CNS.

As for `CS(=O)(=O)c1ccc(N/N=C/c2c(-c3ccc(S(C)(=O)=O)cc3)[nH]c3ccc(F)cc23)cc1`, the GI50 is 3.32 µM with ACHN renal; 2.68 µM in the experiment with HCT-116 colon; 2.59 µM with HL-60(TB) leukemia; 2 µM in the experiment with K-562 leukemia; 1.24 µM in the experiment with LOX IMVI melanoma; 2.23 µM in the experiment with OVCAR-3 ovarian. Further, the GI50 with SK-MEL-2 melanoma was 1.74 µM; with SK-MEL-5 melanoma, 0.792 µM; with SK-OV-3 ovarian it was 3.27 µM; in the experiment on U251 CNS, 1.47 µM. The TGI in the experiment on ACHN renal was more than 50 µM; in the experiment with HCT-116 colon, more than 50 µM; with HL-60(TB) leukemia it was more than 50 µM; in the experiment on K-562 leukemia, more than 50 µM; with LOX IMVI melanoma it was 3.64 µM; in the experiment on OVCAR-3 ovarian, more than 50 µM. Moreover, the TGI was 4.73 µM in the experiment with SK-MEL-2 melanoma, 1.5 µM in the experiment with SK-MEL-5 melanoma, more than 50 µM in the experiment with SK-OV-3 ovarian and more than 50 µM with U251 CNS.

With `c1cncc(C2c3[nH]c4ccccc4c3CCN2CCCN2CCCCC2)c1` (stereo unspecified), the TGI with ACHN renal, with HCT-116 colon, in the experiment on HL-60(TB) leukemia, in the experiment on K-562 leukemia, in the experiment on LOX IMVI melanoma and in the experiment with OVCAR-3 ovarian was more than 100 µM in each case. Further, the TGI in the experiment on SK-MEL-2 melanoma, in the experiment with SK-MEL-5 melanoma, in the experiment on SK-OV-3 ovarian and with U251 CNS was more than 100 µM each time.

Regarding `COc1ccc2cc(C(=O)c3ccccc3C(=O)O)ccc2c1`, the TGI in the experiment with ACHN renal, with HCT-116 colon, in the experiment on HL-60(TB) leukemia, in the experiment with K-562 leukemia, in the experiment with LOX IMVI melanoma and in the experiment with OVCAR-3 ovarian was more than 100 µM each time. The TGI in the experiment with SK-MEL-2 melanoma, in the experiment on SK-MEL-5 melanoma, in the experiment with SK-OV-3 ovarian and with U251 CNS was more than 100 µM throughout.

Regarding `CCCC(OCC)(OCC)OCC`, the TGI with ACHN renal, in the experiment with HCT-116 colon, in the experiment with HL-60(TB) leukemia, in the experiment with K-562 leukemia, with LOX IMVI melanoma and in the experiment on OVCAR-3 ovarian was more than 100 µM throughout. The TGI in the experiment with SK-MEL-2 melanoma, with SK-MEL-5 melanoma, in the experiment on SK-OV-3 ovarian and with U251 CNS was more than 100 µM in each case.

With `CC(=O)[CH-]C(=O)c1ccccc1.CC(=O)[CH-]C(=O)c1ccccc1.O=C([O-])C[O-].O=C([O-])C[O-].[Ti+4]`, the GI50 is 44.9 µM in the experiment with ACHN renal; 21.8 µM in the experiment with HCT-116 colon; 40 µM with HL-60(TB) leukemia; 71.4 µM with K-562 leukemia; 41.2 µM with LOX IMVI melanoma; 42.7 µM in the experiment with OVCAR-3 ovarian. Further, the GI50 in the experiment with SK-MEL-2 melanoma was 30.5 µM; in the experiment on SK-MEL-5 melanoma it was 31.9 µM; in the experiment on SK-OV-3 ovarian, 35.8 µM; with U251 CNS, 32 µM. Further, the TGI in the experiment on ACHN renal, in the experiment on HCT-116 colon, in the experiment with HL-60(TB) leukemia, with K-562 leukemia, in the experiment on LOX IMVI melanoma and in the experiment with OVCAR-3 ovarian was more than 100 µM in each case. The TGI with SK-MEL-2 melanoma, in the experiment on SK-MEL-5 melanoma, with SK-OV-3 ovarian and with U251 CNS was more than 100 µM in each case.

Regarding `CCCCCCCCCCCCCCCCC1=CC(=O)C=C(OC)C1=O`, the TGI in the experiment with ACHN renal, in the experiment on HCT-116 colon, in the experiment on HL-60(TB) leukemia, in the experiment on K-562 leukemia, with LOX IMVI melanoma and in the experiment on OVCAR-3 ovarian was more than 100 µM each time. Moreover, the TGI with SK-MEL-2 melanoma is more than 100 µM; with SK-MEL-5 melanoma, more than 100 µM; in the experiment on SK-OV-3 ovarian, more than 100 µM; in the experiment on U251 CNS it was 93.8 µM.

In the case of `CCCCCCCCCCCCCOC(=O)c1c(C)[nH]c(/C=C2\N=C(c3ccc[nH]3)C=C2OC)c1C`, the GI50 was 0.139 µM in the experiment on ACHN renal; less than 0.0122 µM with HCT-116 colon; 0.0182 µM in the experiment on HL-60(TB) leukemia; 0.0392 µM in the experiment on K-562 leukemia; 0.227 µM in the experiment with OVCAR-3 ovarian; 0.0294 µM in the experiment on SK-MEL-2 melanoma. For the same molecule, the GI50 with SK-MEL-5 melanoma is 0.0194 µM; in the experiment on SK-OV-3 ovarian, 2.8 µM; with U251 CNS, 0.0764 µM. Besides, the TGI in the experiment with ACHN renal was 12.5 µM; in the experiment on K-562 leukemia, more than 100 µM; with LOX IMVI melanoma, 0.0223 µM; in the experiment with OVCAR-3 ovarian, 15.5 µM; with SK-MEL-2 melanoma, 0.157 µM; in the experiment with SK-MEL-5 melanoma, 0.0911 µM. For the same molecule, the TGI worked out at 37.1 µM in the experiment on SK-OV-3 ovarian and 17.7 µM in the experiment on U251 CNS.
